Experimental data from US8865910B2 (priority 2010, dated 2014).
Read-outs that look alike come from different tables or passages of the source.

System: M. bovis BCG
Experiment: microbe, parasite or virus in culture
Type: cell-based, Mycobacterium bovis BCG
Settings: Mycobacterium tuberculosis variant bovis BCG, BCG, 192 h
[1] = read-out: Antimycobacterial activity % inhibition at 100 μg/ml Aerobic/Active stage
[2] = read-out: Antimycobacterial activity % inhibition at 100 μg/ml Anearobic/Dormant stage

c1ccc(Cn2cc(CSc3ncn[nH]3)nn2)cc1 [1a]
inhibition at 100 µg/mL [1]: 3%
inhibition at 100 µg/mL [2]: 4%

Cc1n[nH]c(SCc2cn(Cc3ccccc3)nn2)n1 [1b]
inhibition at 100 µg/mL [1]: 10%
inhibition at 100 µg/mL [2]: 14%

CC(C)(C)c1n[nH]c(SCc2cn(Cc3ccccc3)nn2)n1 [1c]
inhibition at 100 µg/mL [1]: 3%
inhibition at 100 µg/mL [2]: 11%

Cc1nc(SCc2cn(Cc3ccccc3)nn2)nn1Cc1cn(Cc2ccccc2)nn1 [2b, 1-benzyl-4-((1-((1-benzyl-1H-1,2,3-triazol-4-yl)methyl)-5-methyl-1H-1,2,4-triazol-3-ylthio)methyl)-1H-1,2,3-triazole]
inhibition at 100 µg/mL [1]: 8%
inhibition at 100 µg/mL [2]: 12%

CC(C)(C)c1nc(SCc2cn(Cc3ccccc3)nn2)nn1Cc1cn(Cc2ccccc2)nn1 [2c, 1-benzyl-4-((1-((1-benzyl-1H-1,2,3-triazol-4-yl)methyl)-5-tert-butyl-1H-1,2,4-triazol-3-ylthio)methyl)-1H-1,2,3-triazole]
inhibition at 100 µg/mL [1]: 8%
inhibition at 100 µg/mL [2]: 15%

COc1ccc(-c2nc(SCc3cn(Cc4ccccc4)nn3)nn2Cc2cn(Cc3ccccc3)nn2)cc1 [2e, 1-benzyl-4-((1-((1-benzyl-1H-1,2,3-triazol-4-yl)methyl)-5-(4-methoxyphenyl)-1H-1,2,4-triazol-3-ylthio)methyl)-1H-1,2,3-triazole]
inhibition at 100 µg/mL [1]: 1%
inhibition at 100 µg/mL [2]: 8%

Clc1ccc(-c2nc(SCc3cn(Cc4ccccc4)nn3)nn2Cc2cn(Cc3ccccc3)nn2)cc1 [2f, 1-benzyl-4-((1-((1-benzyl-1H-1,2,3-triazol-4-yl)methyl)-5-(4-chlorophenyl)-1H-1,2,4-triazol-3-ylthio)methyl)-1H-1,2,3-triazole]
inhibition at 100 µg/mL [1]: 21%
inhibition at 100 µg/mL [2]: 17%

c1ccc(Cn2cc(CSc3ncnn3Cc3cn(Cc4ccccc4)nn3)nn2)cc1 [3a, 1-benzyl-4-((1-((1-benzyl-1H-1,2,3-triazol-4-yl)methyl)-1H-1,2,4-triazol-5-ylthio)methyl)-1H-1,2,3-triazole]
inhibition at 100 µg/mL [1]: 8%
inhibition at 100 µg/mL [2]: 3%

Cc1nc(SCc2cn(Cc3ccccc3)nn2)n(Cc2cn(Cc3ccccc3)nn2)n1 [3b, 1-benzyl-4-((1-((1-benzyl-1H-1,2,3-triazol-4-yl)methyl)-3-methyl-1H-1,2,4-triazol-5-ylthio)methyl)-1H-1,2,3-triazole]
inhibition at 100 µg/mL [1]: 85%
inhibition at 100 µg/mL [2]: 76%

CC(C)(C)c1nc(SCc2cn(Cc3ccccc3)nn2)n(Cc2cn(Cc3ccccc3)nn2)n1 [3c, 1-benzyl-4-((1-((1-benzyl-1H-1,2,3-triazol-4-yl)methyl)-3-tert-butyl-1H-1,2,4-triazol-5-ylthio)methyl)-1H-1,2,3-triazole]
inhibition at 100 µg/mL [1]: 10%
inhibition at 100 µg/mL [2]: 13%

O=[N+]([O-])c1ccc(-c2nc(SCc3cn(Cc4ccccc4)nn3)n(Cc3cn(Cc4ccccc4)nn3)n2)cc1 [3d, 1-benzyl-4-((1-((1-benzyl-1H-1,2,3-triazol-4-yl)methyl)-3-(4-nitrophenyl)-1H-1,2,4-triazol-5-ylthio)methyl)-1H-1,2,3-triazole]
inhibition at 100 µg/mL [1]: 13%
inhibition at 100 µg/mL [2]: 11%

COc1ccc(-c2nc(SCc3cn(Cc4ccccc4)nn3)n(Cc3cn(Cc4ccccc4)nn3)n2)cc1 [3e, 1-benzyl-4-((1-((1-benzyl-1H-1,2,3-triazol-4-yl)methyl)-3-(4-methoxyphenyl)-1H-1,2,4-triazol-5-ylthio)methyl)-1H-1,2,3-triazole]
inhibition at 100 µg/mL [1]: 86%
inhibition at 100 µg/mL [2]: 82%

Clc1ccc(-c2nc(SCc3cn(Cc4ccccc4)nn3)n(Cc3cn(Cc4ccccc4)nn3)n2)cc1 [3f, 1-benzyl-4-((1-((1-benzyl-1H-1,2,3-triazol-4-yl)methyl)-3-(4-chlorophenyl)-1H-1,2,4-triazol-5-ylthio)methyl)-1H-1,2,3-triazole]
inhibition at 100 µg/mL [1]: 31%
inhibition at 100 µg/mL [2]: 4%

C=CCSc1nc[nH]n1 [4a, 3-allylthio-1H 1,2,4 triazole]
inhibition at 100 µg/mL [1]: 51%
inhibition at 100 µg/mL [2]: 32%
